Assay results from patent publication US10259781B2, “Imaging agents” (THE REGENTS OF THE UNIVERSITY OF MICHIGAN, priority 2012, dated 2019).
Entries after “also recorded” stand apart in the source; their conditions may differ.

Legend:
[1] = In vitro incubation with monkey liver cytosol fraction and PAPS (sulfur conjugation); assay type: in vitro ADME
Method: The main radiometabolite formed is more polar than the parent compound, [^18F]4-MHPG. The metabolite has been identified as the sulfur conjugate of [^18F]4-MHPG based on in vitro incubations of the parent compound with a monkey liver cytosol fraction and the required cofactor 3′-phospho-adenosine-5′phosphosulfate (PAPS). After only 1 minute of in vitro incubation, approximately 70% of [^18F]4-MHPG was sulfur conjugated, and after 20 minutes of incubation, 100% was in the sulfur-conjugated form (FIG. 4B). Sulfur conjugation occurs at the meta-hydroxyl group (FIG. 4C). Without being bound by theory and without requiring an understanding of the mechanism to practice the technology, it is contemplated that rapid metabolism of [^18F]4F-MHPG is a reason for its low liver uptake. In comparison, the structurally similar carbon-11 compound, [^11C]guanyl-meta-octopamine (GMO), has a slower metabolic breakdown in monkey plasma, with a T1/2 for breakdown of approximately 13 minutes.

[2] = target: T1, norepinephrine transporters (NET) (Macaca mulatta, UniProt Q9MYW8); test: Desipramine (DMI) block of the neuronal uptake of [18F]4F-MHPG, microPET; assay type: in vivo, rhesus macaque monkey
T1 construct: from tissue; host or cells: heart (presynaptic sympathetic nerve terminals) of living rhesus macaque monkeys, microPET in vivo
From the text: Additional data were collected and Patlak analyses performed.
Orthogonal slice images were acquired for comparison with data from a control study.

[3] = Metabolic breakdown in monkey plasma (reverse-phase HPLC of venous blood samples); assay type: in vivo, rhesus macaque monkey; conditions: rhesus monkeys
Method: In some of the microPET studies, venous blood samples (e.g., n=6) were drawn to assess the metabolic breakdown of [^18F]4F-MHPG in plasma (see Table 1). Plasma was processed for injection onto a reverse-phase HPLC system equipped with a radiation detector. The percentages of intact parent tracer and radiolabeled metabolites were determined as a function of time. In this system, [^18F]4-MHPG has a retention time Rt of approximately 11.2 minutes while the main polar radiometabolite formed has an Rt of approximately 7.9 minutes.

[4] = Human radiation absorbed dose estimates, OLINDA/EXM 1.0, from rat biodistribution
Method: (§1) During the development of embodiments of the technology provided herein, the biodistribution of [^18F]4F-MHPG into the organs of rats was assessed. In particular, four time points (Table 3) were collected and used to derive human radiation absorbed dose estimates using the OLINDA/EXM 1.0 software package (see, e.g., Stabin et al. (2005) “OLINDA/EXM; the second-generation personal computer software for internal dose assessment in nuclear medicine”, J Nucl Med. 46: 1023-7). […] These values were entered into the Dynamic Bladder model of OLINDA/EXM, assuming a 4.0-hour void interval. Organs with the highest absorbed dose estimates included the urinary bladder wall (0.666 rad/mCi), […] (0.221 rad/mCi), small intestine (0.201 rad/mCi), and the heart wall (0.201 rad/mCi). An ‘effective dose’ of 0.091 rem/mCi was estimated for [^18F]4F-MHPG. Under United States Federal Regulations governing research with a new radiopharmaceutical (21 CFR § 361.1), the maximum allowable radiation absorbed dose to an individual organ (other than the gonads) is 5 rad. Considering the maximum estimated absorbed dose (urinary bladder wall; 0.666 rad/mCi), initial PET studies in human subjects could use a maximum of 7.5 mCi of [^18F]4F-MHPG. This would correspond to an ‘effective dose’ of 0.68 rem.

adrenal glands = test: Uptake into adrenal glands, microPET; assay type: in vivo, rhesus macaque monkey; conditions: DMI block of NET
From the text: To assess the ability of [^18F]4F-MHPG to serve an additional clinical role as a marker of adrenergic tumors such as neuroblastoma and pheochromocytoma, data were collected to examine the uptake of [^18F]4F-MHPG into the adrenal gland. In control studies, the adrenal glands took up sufficient [^18F]4F-MHPG to be visualized, especially on the right side of the transaxial images, which was better separated from the kidney than the contralateral adrenal gland. There was also significant uptake in the cortex of the kidney. The kinetics of [^18F]4F-MHPG in the adrenal gland are very similar to those seen in the heart. In the DMI block study above, the adrenal glands were scanned for 10 minutes following the 90 minute cardiac study.

[5] = tested on: cardiac sympathetic neurons; test: Isolated working rat heart model: neuronal uptake and clearance kinetics
Method: The radiotracer was infused into the heart for 10 minutes to measure the tracer uptake rate into cardiac sympathetic neurons (Kup, shown in units of ml/min/g tissue wet). Then, the heart was infused with normal heart perfusate to measure the tracer clearance rate from the heart over 2 hours.
Experiments were conducted to test ^11C-phenoxyethylguanidine (PEG), e.g., to establish baseline values for the NET transport rate (Kup, expressed in units of mL perfusate/min/g wet) and the clearance rate from sympathetic neurons (T1/2, expressed in units of hours).

[6] = MicroPET imaging studies in rats: excretion through the bladder; assay type: in vivo, rat
Method: as §1

T1 sequence (Q9MYW8 1-617): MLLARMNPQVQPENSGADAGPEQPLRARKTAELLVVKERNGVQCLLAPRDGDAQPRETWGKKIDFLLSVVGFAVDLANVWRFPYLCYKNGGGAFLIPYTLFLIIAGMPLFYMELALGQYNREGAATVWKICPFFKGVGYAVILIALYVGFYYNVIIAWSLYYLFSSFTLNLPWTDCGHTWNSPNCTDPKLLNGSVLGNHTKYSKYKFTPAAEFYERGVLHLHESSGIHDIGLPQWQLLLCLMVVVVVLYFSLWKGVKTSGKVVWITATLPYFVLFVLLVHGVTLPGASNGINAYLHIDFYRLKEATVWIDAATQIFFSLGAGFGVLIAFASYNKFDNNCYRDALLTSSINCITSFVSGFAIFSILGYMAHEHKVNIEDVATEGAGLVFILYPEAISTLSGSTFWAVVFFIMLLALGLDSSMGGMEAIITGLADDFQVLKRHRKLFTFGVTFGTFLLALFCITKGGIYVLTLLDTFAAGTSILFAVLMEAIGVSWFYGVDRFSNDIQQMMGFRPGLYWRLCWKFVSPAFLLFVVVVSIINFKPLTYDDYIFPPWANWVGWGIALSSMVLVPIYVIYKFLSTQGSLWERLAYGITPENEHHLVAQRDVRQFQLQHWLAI

Structure (SMILES): N=C(N)NCCc1ccc(F)c(O)c1 [[^18F]4F-MHPG] [4-[^18F]fluoro-meta-hydroxy-phenethylguanidine]
- fraction sulfur conjugated ([1]; after 1 minute of in vitro incubation): approximately 70%
- fraction in the sulfur-conjugated form ([1]; after 20 minutes of incubation): 100%
- specificity of myocardial uptake for cardiac sympathetic neurons ([2]; control vs DMI block): 100%
- nonspecific binding in heart tissue ([2]; highest dose DMI block study): very low; also recorded: extremely low
- metabolism in plasma [3]: rapidly metabolized
- effective dose for a maximum of 7.5 mCi ([4]; initial PET studies in human subjects, 7.5 mCi): 0.68 rem
- Effective dose ([4]; reference adult male model): 0.091 rem/mCi
- Effective dose, Dose for 10 mCi ([4]; reference adult male model): 0.91 rem
- Radiation absorbed dose estimate, Dose for 10 mCi, Adrenals ([4]; reference adult male model): 0.59 rad
- Radiation absorbed dose estimate, Dose for 10 mCi, Brain ([4]; reference adult male model): 0.25 rad
- Radiation absorbed dose estimate, Dose for 10 mCi, Breasts ([4]; reference adult male model): 0.26 rad
- Radiation absorbed dose estimate, Dose for 10 mCi, Gallbladder wall ([4]; reference adult male model): 0.61 rad
- Radiation absorbed dose estimate, Dose for 10 mCi, Heart wall ([4]; reference adult male model): 1.09 rad
- Radiation absorbed dose estimate, Dose for 10 mCi, Kidneys ([4]; reference adult male model): 0.78 rad
- Radiation absorbed dose estimate, Dose for 10 mCi, LLI wall ([4]; reference adult male model): 1.07 rad
- Radiation absorbed dose estimate, Dose for 10 mCi, Liver ([4]; reference adult male model): 0.96 rad
- Radiation absorbed dose estimate, Dose for 10 mCi, Lungs ([4]; reference adult male model): 0.35 rad
- Radiation absorbed dose estimate, Dose for 10 mCi, Muscle ([4]; reference adult male model): 0.37 rad
- Radiation absorbed dose estimate, Dose for 10 mCi, Osteogenic cells ([4]; reference adult male model): 0.49 rad
- Radiation absorbed dose estimate, Dose for 10 mCi, Ovaries ([4]; reference adult male model): 0.88 rad
- Radiation absorbed dose estimate, Dose for 10 mCi, Pancreas ([4]; reference adult male model): 0.63 rad
- Radiation absorbed dose estimate, Dose for 10 mCi, Red marrow ([4]; reference adult male model): 0.37 rad
- Radiation absorbed dose estimate, Dose for 10 mCi, Skin ([4]; reference adult male model): 0.26 rad
- Radiation absorbed dose estimate, Dose for 10 mCi, Small intestine ([4]; reference adult male model): 2.01 rad
- Radiation absorbed dose estimate, Dose for 10 mCi, Spleen ([4]; reference adult male model): 0.79 rad
- Radiation absorbed dose estimate, Dose for 10 mCi, Stomach wall ([4]; reference adult male model): 0.48 rad
- Radiation absorbed dose estimate, Dose for 10 mCi, Testes ([4]; reference adult male model): 0.41 rad
- Radiation absorbed dose estimate, Dose for 10 mCi, Thymus ([4]; reference adult male model): 0.33 rad
- Radiation absorbed dose estimate, Dose for 10 mCi, Thyroid ([4]; reference adult male model): 0.29 rad
- Radiation absorbed dose estimate, Dose for 10 mCi, Total body ([4]; reference adult male model): 0.41 rad
- Radiation absorbed dose estimate, Dose for 10 mCi, ULI wall ([4]; reference adult male model): 2.21 rad
- Radiation absorbed dose estimate, Dose for 10 mCi, Urinary bladder wall ([4]; reference adult male model): 6.66 rad
- Radiation absorbed dose estimate, Dose for 10 mCi, Uterus ([4]; reference adult male model): 1.03 rad
- Radiation absorbed dose estimate, Total dose, Adrenals ([4]; reference adult male model): 0.059 rad/mCi
- Radiation absorbed dose estimate, Total dose, Brain ([4]; reference adult male model): 0.025 rad/mCi
- Radiation absorbed dose estimate, Total dose, Breasts ([4]; reference adult male model): 0.026 rad/mCi
- Radiation absorbed dose estimate, Total dose, Gallbladder wall ([4]; reference adult male model): 0.061 rad/mCi
- Radiation absorbed dose estimate, Total dose, Heart wall ([4]; reference adult male model): 0.109 rad/mCi
- Radiation absorbed dose estimate, Total dose, Kidneys ([4]; reference adult male model): 0.078 rad/mCi
- Radiation absorbed dose estimate, Total dose, LLI wall ([4]; reference adult male model): 0.107 rad/mCi
- Radiation absorbed dose estimate, Total dose, Liver ([4]; reference adult male model): 0.096 rad/mCi
- Radiation absorbed dose estimate, Total dose, Lungs ([4]; reference adult male model): 0.035 rad/mCi
- Radiation absorbed dose estimate, Total dose, Muscle ([4]; reference adult male model): 0.037 rad/mCi
- Radiation absorbed dose estimate, Total dose, Osteogenic cells ([4]; reference adult male model): 0.049 rad/mCi
- Radiation absorbed dose estimate, Total dose, Ovaries ([4]; reference adult male model): 0.088 rad/mCi
- Radiation absorbed dose estimate, Total dose, Pancreas ([4]; reference adult male model): 0.063 rad/mCi
- Radiation absorbed dose estimate, Total dose, Red marrow ([4]; reference adult male model): 0.037 rad/mCi
- Radiation absorbed dose estimate, Total dose, Skin ([4]; reference adult male model): 0.026 rad/mCi
- Radiation absorbed dose estimate, Total dose, Small intestine ([4]; reference adult male model): 0.201 rad/mCi
- Radiation absorbed dose estimate, Total dose, Spleen ([4]; reference adult male model): 0.079 rad/mCi
- Radiation absorbed dose estimate, Total dose, Stomach wall ([4]; reference adult male model): 0.048 rad/mCi
- Radiation absorbed dose estimate, Total dose, Testes ([4]; reference adult male model): 0.041 rad/mCi
- Radiation absorbed dose estimate, Total dose, Thymus ([4]; reference adult male model): 0.033 rad/mCi
- Radiation absorbed dose estimate, Total dose, Thyroid ([4]; reference adult male model): 0.029 rad/mCi
- Radiation absorbed dose estimate, Total dose, Total body ([4]; reference adult male model): 0.041 rad/mCi
- Radiation absorbed dose estimate, Total dose, ULI wall ([4]; reference adult male model): 0.221 rad/mCi
- Radiation absorbed dose estimate, Total dose, Urinary bladder wall ([4]; reference adult male model): 0.666 rad/mCi
- Radiation absorbed dose estimate, Total dose, Uterus ([4]; reference adult male model): 0.103 rad/mCi
- uptake into the adrenal glands under DMI block (adrenal glands): No uptake; also recorded: completely absent
- kinetics compared with [11C]4F-MHPG [5]: almost identical
- biological half-time of excretion through the bladder [6]: 0.20±0.02 hours
- injected dose excreted through the bladder [6]: 19.9±0.2%
